According to PubChem BioAssay (NCI):
Where “and” joins values, the source holds several entries; their conditions need not be identical. Identical values can stand only once.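 96-well plates; 48 h exposure; 5 concentrations. Endpoints by linear interpolation between flanking doses. Not reached: highest tested concentration assigned. GI50: concentration for 50% inhibition of growth. TGI: total growth inhibition.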

Tests used:
Assay in all cases: growth of human tumour cells (NCI), 48 h
HL-60(TB) leukemia = system: HL-60(TB) leukemia
KM20L2 colon = system: KM20L2 colon
LXFL 529 NSCLC = system: LXFL 529 NSCLC
M14 melanoma = system: M14 melanoma
MOLT-4 leukemia = system: MOLT-4 leukemia
OVCAR-5 ovarian = system: OVCAR-5 ovarian
SR leukemia = system: SR leukemia
UACC-62 melanoma = system: UACC-62 melanoma
MDA-MB-435 = system: MDA-MB-435
NCI/ADR-RES ovarian = system: NCI/ADR-RES ovarian

SMILES	TGI (HL-60(TB) leukemia)	TGI (KM20L2 colon) [µM]	TGI (LXFL 529 NSCLC) [µM]	TGI (M14 melanoma)	TGI (MOLT-4 leukemia) [µM]	TGI (OVCAR-5 ovarian)	TGI (SR leukemia) [µM]	TGI (UACC-62 melanoma)	GI50 (HL-60(TB) leukemia) [µM]	GI50 (M14 melanoma) [µM]	GI50 (MDA-MB-435) [µM]	TGI (MDA-MB-435)	GI50 (MOLT-4 leukemia) [µM]	GI50 (NCI/ADR-RES ovarian)	TGI (NCI/ADR-RES ovarian)	GI50 (OVCAR-5 ovarian)	GI50 (SR leukemia) [µM]	GI50 (UACC-62 melanoma) [µM]	GI50 (KM20L2 colon) [µM]
COc1ccc(-c2cc(-c3ccccc3)c(C#N)c(=O)[nH]2)cc1	> 100 µM	> 100	> 100	> 100 µM	> 100	> 100 µM	> 100	> 100 µM	–	–	–	–	–	–	–	–	–	–	–
NNC(=O)CC(=O)Nc1ccccc1F	> 100 µM	> 100	> 100	> 100 µM	> 100	> 100 µM	–	> 100 µM	–	–	–	–	–	–	–	–	–	–	–
CCOC(=O)c1c(-c2[nH]c(C(=O)OCc3ccccc3)c(C)c2C(=O)OCC)[nH]c(C(=O)OCc2ccccc2)c1C	–	> 100	> 100	> 100 µM	> 100	> 100 µM	> 100	> 100 µM	–	–	–	–	–	–	–	–	–	–	–
CCOC(=O)CNC(SC)=C(C#N)C#N	> 100 µM	> 100	> 100	> 100 µM	> 100	> 100 µM	> 100	> 100 µM	–	–	–	–	–	–	–	–	–	–	–
COc1cc2ccc(CC#N)cc2cc1OC	> 100 µM	> 100	> 100	–	> 100	> 100 µM	> 100	–	–	–	–	–	–	–	–	–	–	–	–
COc1ccc2oc(-c3ccncc3)cc(=O)c2c1	> 100 µM	–	> 100	> 100 µM	> 100	> 100 µM	–	> 100 µM	–	–	–	–	–	–	–	–	–	–	–
C#CCOCn1cnc2ncnc(Cl)c21	–	> 100	> 100	> 100 µM	> 100	> 100 µM	> 100	> 100 µM	–	–	–	–	–	–	–	–	–	–	–
COc1cc2c(c3oc(-c4ccc5c(c4)OCO5)c(O)c(=O)c13)CCC(C)(C)O2	> 100 µM	–	> 100	> 100 µM	> 100	–	–	> 100 µM	–	–	–	–	–	–	–	–	–	–	–
COC1=NN2C(OC)(c3ccccc3)c3c(-c4ccccc4)sc(-c4ccccc4)c3C2(c2ccccc2)S1 (stereo not drawn)	> 100 µM	–	> 100	> 10 µM	> 100	> 100 µM	> 100	> 100 µM	–	–	–	–	–	–	–	–	–	–	–
Cc1ccc(C(=O)Nc2ccc(CN3CCN(C)CC3)c(C(F)(F)F)c2)cc1C#Cc1cncc2ncccc12	1.61 µM	–	–	0.9 µM	16.8	5.71 µM	7.78	1.26 µM	0.282	0.0877	0.286	1.56 µM	0.353	0.502 µM	16 µM	0.653 µM	0.63	0.102	–
COc1cc(C2[C@H]3C(=O)N(c4ccc(Cc5ccc(N6C(=O)[C@@H]7ON(c8ccccc8)C(c8cc(OC)c(OC)c(OC)c8)[C@@H]7C6=O)cc5)cc4)C(=O)[C@H]3ON2c2ccccc2)cc(OC)c1OC (stereo partly drawn)	> 100 µM	> 100	–	48.6 µM	> 100	> 100 µM	> 100	> 100 µM	–	–	–	–	–	–	–	–	–	–	–
CC(=O)OC1CCC2(C)C(CCC3C2CCC2(C)C(C4=CC(=O)OC4)CCC32)C1 (stereo not drawn)	30.7 µM	–	–	> 100 µM	6.3	55.8 µM	10.9	2.74 µM	7.9	5.93	4.2	33.5 µM	2.6	8.37 µM	42.7 µM	11.5 µM	0.468	1.01	–
O=C1Cc2ccccc2N1/N=C\c1ccc(O)cc1	–	> 100	–	> 100 µM	> 100	> 100 µM	–	> 100 µM	–	–	–	–	–	–	–	–	–	–	–
COc1cc(/C=C/C(=O)c2c(C)n([O-])c3cc(C)c(C)cc3[n+]2=O)cc(OC)c1OC	61.7 µM	–	–	60.2 µM	> 100	47.1 µM	> 100	37.9 µM	12.1	16.1	20.4	> 100 µM	6.77	23 µM	56.6 µM	17.6 µM	13.4	15.5	–
c1ccc(-c2n(Cc3ccc4ccccc4n3)c3ccccc3[n+]2Cc2ccc3ccccc3n2)cc1	0.62 µM	–	–	1.43 µM	2.09	2 µM	2.42	1.24 µM	0.151	0.289	0.337	1.22 µM	0.443	13.6 µM	> 55.6 µM	0.376 µM	0.357	0.306	–
Cc1cc[c-]cc1.Fc1c[c-]c(-c2ccccn2)c(F)c1.N#CCC[PH+](CCC#N)c1ccccc1.[Pt+2]	18.1 µM	–	–	10.9 µM	> 100	19.6 µM	10	4.43 µM	2.37	2.94	2.47	6.75 µM	2.79	4.24 µM	52.8 µM	3.79 µM	2.22	1.79	–
CC1=C(C(=O)Nc2ccccc2C)C(c2ccc(N(C)C)cc2)C(C(=O)Nc2ccccc2C)=C(C)N1	53.8 µM	> 100	–	–	> 100	> 100 µM	–	> 100 µM	–	–	–	–	–	–	–	–	–	–	–
CC1(C)CCc2cc3c(cc2O1)OC(C)(C)C1c2c(ccc4c2CCC(C)(C)O4)OC31 (stereo not drawn)	> 100 µM	–	> 100	> 100 µM	> 100	> 100 µM	> 100	> 100 µM	–	–	–	–	–	–	–	–	–	–	–
COC(=O)[C@]12CC[C@@H](C)[C@H](C)[C@@H]1C1=CC[C@@H]3[C@@]4(C)C(c5ncon5)=C[C@@](C)(CO)C4=CC[C@@]3(C)[C@]1(C)CC2	5.04 µM	–	–	4.88 µM	3.92	26.8 µM	4.21	4.02 µM	2.13	2.07	1.72	3.36 µM	1.69	2.28 µM	5.72 µM	5.2 µM	1.55	1.89	–
C(=C1\CCC/C(=C/c2ccccc2)C1=NNc1ccccc1)/c1ccccc1	> 100 µM	> 100	> 100	> 100 µM	> 100	> 100 µM	–	> 100 µM	–	–	–	–	–	–	–	–	–	–	–

SMILES	TGI (HL-60(TB) leukemia)	TGI (KM20L2 colon) [µM]	TGI (LXFL 529 NSCLC) [µM]	TGI (M14 melanoma)	TGI (MOLT-4 leukemia) [µM]	TGI (OVCAR-5 ovarian)	TGI (SR leukemia) [µM]	TGI (UACC-62 melanoma)	GI50 (HL-60(TB) leukemia) [µM]	GI50 (M14 melanoma) [µM]	GI50 (MDA-MB-435) [µM]	TGI (MDA-MB-435)	GI50 (MOLT-4 leukemia) [µM]	GI50 (NCI/ADR-RES ovarian)	TGI (NCI/ADR-RES ovarian)	GI50 (OVCAR-5 ovarian)	GI50 (SR leukemia) [µM]	GI50 (UACC-62 melanoma) [µM]	GI50 (KM20L2 colon) [µM]
CC(C)O/C=C1\C(=O)C2(SCCS2)[C@H]2CCCC[C@@H]12	53.4 µM	> 100	> 100	> 100 µM	46.4	–	> 100	69.4 µM	–	–	–	–	–	–	–	–	–	–	–
Cn1cc(-c2csc(-c3cn(CCN4CCOCC4)c4ccc(F)cc34)n2)c2cccnc21	6.87 µM	–	–	4.89 µM	4.46	> 100 µM	6.9	5.34 µM	2.52	2.09	2.77	10.5 µM	1.79	2.36 µM	8.15 µM	4.59 µM	2.29	2.06	–
Cc1sc2nc(-c3ccccn3)c(/C=N/N=C(N)N)n2c1C	> 100 µM	–	–	12.1 µM	> 27.5	16.2 µM	> 100	10.4 µM	4.48	7.28	4.53	10.1 µM	10.2	> 21.9 µM	> 40 µM	7.67 µM	> 100	4.19	–
O=C1c2cnccc2Cc2cccc3c2N1c1ccccc1S3	67.1 µM	34.8	> 100	58.8 µM	> 100	–	34.8	41.7 µM	–	–	–	–	–	–	–	–	–	–	–
CC1SC2=NC3=C(c4ccccc4C3=O)C(c3ccc(Br)cc3)N2C1=O (stereo not drawn)	62.8 µM	> 100	> 100	> 100 µM	> 100	> 100 µM	–	> 100 µM	–	–	–	–	–	–	–	–	–	–	–
COc1ccc2nc(-c3ccccc3)cc(Nc3ccc(/C(C)=N/O)cc3)c2c1	> 100 µM	–	–	2.78 µM	> 100	> 100 µM	> 100	4.65 µM	2.88	1.46	3.4	–	3.73	2.75 µM	> 24.6 µM	5.5 µM	3.82	2.1	–
COc1ccc(S(=O)(=O)O)cc1NS(=O)(=O)c1ccc(C)cc1	> 100 µM	–	–	> 100 µM	> 100	> 100 µM	> 100	> 100 µM	–	–	–	> 100 µM	–	–	> 100 µM	–	–	–	–
CC[C@](O)(C(=O)O)c1cc2n(c(=O)c1CO)Cc1cc3ccccc3nc1-2	0.347 µM and 2.5 µM	3.96	–	0.0511 µM and 0.181 µM	–	0.784 µM and 0.501 µM	–	0.121 µM and 0.0422 µM and 0.0555 µM	< 0.0025	0.0108	0.101	0.632 µM and 0.516 µM	< 0.0025	0.00661 µM and 0.012 µM	0.224 µM and 0.121 µM and 0.0889 µM	0.0691 µM and 0.104 µM	–	0.00348	0.209
Cn1cc2ccccc2c1-c1nc(F)nc(Oc2ccc3c(c2)CC[C@@H]2C3CC[C@]3(C)C(O)CCC23)n1 (stereo partly drawn)	–	36.9	31.6	30.1 µM	65.7	33.3 µM	–	–	–	–	–	–	–	–	–	–	–	–	–
Cc1cc(-c2ccccc2)c(C)n1Cc1ccc(Cl)cc1	55.8 µM	–	–	31.6 µM	91.9	> 100 µM	26.7	> 100 µM	4.3	3.21	0.368	2.55 µM	4.84	3.64 µM	66.3 µM	12.3 µM	0.592	3.44	–
O=C1C=C(N2CC2)c2ccccc2C1=O	6.54 µM	–	–	3.04 µM	5.77	3.68 µM	4.78	3.25 µM	2.68	1.63	0.778	2.23 µM	1.99	1.94 µM	5.83 µM	2.03 µM	1.21	1.79	–
Cc1cc(C)cc(Nc2nccc(-c3c(-c4ccc(F)cc4)ncn3C3CCNCC3)n2)c1	3.68 µM	–	–	3.18 µM	5.32	3.98 µM	3.61	2.95 µM	1.6	1.59	0.767	2.09 µM	2.03	1.79 µM	4.07 µM	1.67 µM	1.01	1.55	–
CSc1nc2c(nc(N)n2C2OCC(O)C(O)C2O)c(=O)[nH]1 (stereo not drawn)	> 100 µM	> 100	> 100	> 100 µM	> 100	–	> 100	> 100 µM	–	–	–	–	–	–	–	–	–	–	–
O=C1C2Cc3ccccc3CN2C(=O)N1CN1CCN(CN2C(=O)C3Cc4ccccc4CN3C2=O)CC1 (stereo not drawn)	> 100 µM	> 100	–	–	> 100	> 100 µM	–	> 100 µM	–	–	–	–	–	–	–	–	–	–	–
Cc1cn(C2C=CC(=O)C(C)O2)c(=O)[nH]c1=O (stereo not drawn)	38.1 µM	30.2	28.1	29.7 µM	40.9	–	43.8	29.1 µM	–	–	–	–	–	–	–	–	–	–	–
COc1ccc(-c2nnc3n(C)c(=O)c4ccccc4n23)cc1O	1.32 µM	–	–	25.9 µM	> 100	> 100 µM	> 100	27.1 µM	0.13	0.127	0.065	0.221 µM	1.17	0.154 µM	33.9 µM	15.8 µM	0.1	0.441	–
COc1ccc(CNc2nc3ccccc3nc2-c2cccs2)cc1OC	> 100 µM	> 100	> 100	–	> 100	> 100 µM	> 100	–	–	–	–	–	–	–	–	–	–	–	–
O=C(N/C(=C\c1ccc([N+](=O)[O-])cc1)c1nc2[nH]c(=S)[nH]c(=O)c2[nH]1)c1ccccc1	–	> 100	> 100	> 100 µM	> 100	> 100 µM	> 100	> 100 µM	–	–	–	–	–	–	–	–	–	–	–
COc1cc(C)c(C(=O)/C=C/c2cc(OC)c(O)c(OC)c2)cc1O	64.8 µM	57.6	40.3	29.9 µM	> 100	69.9 µM	–	44.1 µM	–	–	–	–	–	–	–	–	–	–	–
O=C1Nc2ccccc2C12CC(c1ccccc1)=NN2 (stereo not drawn)	15.3 µM	–	–	46.3 µM	> 100	96.1 µM	34.8	> 100 µM	3.29	4.9	1.66	4.5 µM	8.41	7.49 µM	> 100 µM	16.4 µM	3.64	4.38	–
